# According to patent US12479812B2, “Fatty acid derivatives and their use” (THE UNITED STATES OF AMERICA, as represented by the …, priority 2017, dated 2025):
# Tests used:
# [1] = test system: human THP-1 cells; experiment: ApoA1 cholesterol efflux screen in THP-1 cells; assay type: cell-based; settings: 50 μM; THP-1 cells incubated with ApoA1
# Method: Human THP-1 cells were incubated with ApoA1 in the presence of linoleic acid or several different fatty acid derivatives (50 μM) in a blinded manner, and resulting cholesterol efflux was measured (FIG. 9) as previously described (PMID: 26879139).
# [2] = Incubation under esterification conditions (glycerol on silica gel, 3 days), LC-MS; assay type: physicochemical; settings: for esterification with glycerol: free acid in ether with glycerol-coated silica gel, 3 days; for internal lactonization: under the esterification conditions
# Method: • A: 10 mM NH4OAc, pH 7.4 • B: Acetonitrile+0.1% formic acid • 0-1.50 min: 5% B • 1.50-2 min: 5-90% B • 2-10 min: 90% B • 10.01-15 min: 5% B • DAD1 254 nm • DAD2 215 nm • Agilent Zorbax XDB-C18 5 μm C18 50×2.0 mm • 0.4 ml/min MS Parameters: Agilent 6120 with Electrospray Ionization • Drying gas flow: 11.0 L/min • Nebulizer pressure: 40 psig • Drying gas temperature: 350 C • Positive capillary voltage: 4000 V • Negative capillary voltage: 3000 V
# Approximately 30 mg of silica gel was added to 25 mg of glycerol, and it was then vortexed to coat all of the silica with glycerol, until the admixture was free-flowing. Between 5-10 mg of this material was added to a solution of the free acid in ether, and it was vortexed briefly. The reaction was left for 3 days, then filtered and evaporated under nitrogen. The residue was redissolved in ethanol and analyzed by LC-MS, in both positive and negative modes.
# [3] = test system: adult rat dorsal root ganglia (DRG) neurons; experiment: Ex vivo CGRP release assay in adult rat sensory neuronal cultures; assay type: cell-based; settings: 1 μM; for capsaicin-evoked CGRP release: 30 nM capsaicin; for low-pH-evoked CGRP release: buffer pH adjusted to 6.0
# Method: For release experiments, the work was approved by the Animal Care and Use Committee at Indiana University School of Medicine, Indianapolis, IN. Adult rat sensory neuronal cultures were prepared as previously described (Burkey, Hingtgen, and Vasko, Methods in molecular medicine 99, 189, 2004; Kelley et al., PloS one 9, e106485, 2014). Cells were maintained for 10-12 days in F-12 media (Invitrogen, Carlsbad, CA) supplemented with 10% horse serum, 2 mM glutamine, 100 μg/ml normocin™, 50 μg/ml penicillin, 50 μg/ml streptomycin, 50 μM 5-fluoro-2′-deoxyuridine (Invitrogen), 150 μM uridine, and 30 ng/ml of NGF (Harlan Bioproducts for Science, Inc. Indianapolis, IN) in 3% CO2 at 37° C. On the day of the release experiments, cultures were washed with HEPES buffer (25 mM HEPES, 135 mM NaCl, 3.5 mM KCl, 2.5 mM CaCl2, 1 mM MgCl2, 3.3 mM D-glucose, and 0.1% bovine serum albumin, pH 7.4 and maintained at 37° C. Cultures were then incubated with 0.4 ml of the same buffer in the absence or presence of drugs. Basal release was determined by exposing the cells to HEPES buffer alone for 10 min, then to buffer in the presence of mediators for 10 min to ascertain if the compounds stimulated release. Cultures were then exposed to buffer containing 30 nM capsaicin or buffer with the pH adjusted to 6.0 in the absence or presence of mediators. Cells then were re-exposed to HEPES buffer without drugs for a 10 min incubation to reestablish basal release. After each incubation, the buffer was removed to measure the amount of CGRP using radioimmunoassay as previously described (Chen et al., Peptides 17, 31, 1996). At the end of each release experiment, cells were hypotonically lysed by exposing the cultures to 0.1 M HCl for 10 min and an aliquot taken to measure total CGRP content in the cultures using radioimmunoassay. […] Release data are presented in fmol/well of cell/10 min from three independent experiments from separate harvests. Statistical analysis was performed using ANOVA with Tukey's post hoc test.
# [4] = test system: female mice (C57BL/6J); experiment: Pruriceptive (itch) behavior, scratching bouts after intradermal injection into nape of neck; assay type: in vivo, mouse; settings: for itch-related scratching behavior compared to vehicle: 100 μg (mixture 100 μg of each) intradermal, n=6-8 per group, 30 minutes; for onset of scratching responses (significantly greater than vehicle) / time of maximum scratching response: 9K-12,13E-LA 100 μg, histamine 50 μg; for scratching bouts compared to vehicle, pilot testing: n=3 per group, first 30 minutes after intradermal injection
# Method: Hydroxy- and keto-epoxide derivatives of LA (100 μg) or histamine (50 μg) were injected intra-dermally into the nape of neck of the female mice (C57BL/6J from Jackson Laboratory). LA derivatives (9-keto-12,13-epoxy-(10E)-octadecenoate or 13-keto-9,10-epoxy-(11E)-octadecenoate) were injected independently, and in combination (9-keto-12,13-epoxy-(10E)-octadecenoate plus 13-keto-9,10-epoxy-(11E)-octadecenoate (100 μg of each)). Pruriceptive behavior was quantified as the number of scratching bouts assessed over 30 minutes, as previously described (Mishra and Hoon, Science 340, 968, 2013).
# [5] = test system: normal mice or a mast cell knock-out mouse; experiment: Itch-related scratching in normal and mast cell knock-out mice; assay type: in vivo; settings: 100 μg intradermal; 30 minutes
# Method: The fatty acid derivative 9K-12,13E-LA (100 μg) was injected intra-dermally into the nape of neck of normal mice or a mast cell knock-out mouse (FIG. 8) in a blinded manner. Pruriceptive behavior was quantified as the number of scratching bouts assessed over 30 minutes, as previously described (Mishra and Hoon, Science 340, 968, 2013).
# [6] = test system: murine trigeminal sensory neurons; experiment: Ca2+ responses in cultured trigeminal sensory neurons; assay type: cell-based, mouse; settings: FIG. 7B
# Method: Additionally, murine trigeminal sensory neurons were isolated and cultured in vitro. Fatty acid derivatives were applied to the cultured neurons and any resulting Ca^2+ response was measured in a blinded manner. The assayed compounds include: 11H-12,13E-LA (Compound 1), 11K-12,13E-LA (Compound 2), 11H-9,10E-LA (Compound 3), and 11K-9,10E-LA (Compound 4).
# [7] = test system: tumor necrosis factor (TNF)-alpha secretion, human PBMCs; experiment: PBMC cytokine secretion (ELISA): TNF-alpha; assay type: cell-based; settings: 100 μM, 24 hours; for LPS-induced TNF-alpha secretion: LPS pre-incubation; for native TNF-alpha secretion: no LPS
# Method: (§1) Freshly isolated human PBMCs were pre-incubated (FIGS. 11A and 11C) or not (FIGS. 11B and 11D) with LPS, and then incubated with ferulic acid (“FA,” 100 μM) and 11H-12,13E-LA, 11K-12,13E-LA, PBS, or LPS alone for 24 hours (blinded). Then, the medium concentration of TNF-alpha (FIGS. 11A and 11B) or […] (FIGS. 11C and 11D) was measured using enzyme-linked immunosorbent assay.
# [8] = test system: freshly isolated human PBMCs; experiment: ApoA1 cholesterol efflux screen in freshly isolated PBMCs; assay type: cell-based; settings: 50 μM
# [9] = test system: male Sprague-Dawley rats; experiment: Nociceptive (pain) behavior after intradermal hindpaw injection; assay type: in vivo, rat; settings: for decrease of C-fiber withdrawal latencies: after intradermal hindpaw injection (11H-12,13E-LA 30 μg), versus vehicle
# Method: 11-hydroxy-12,13-trans-epoxy-(9Z)-octadecenoate (30 μg) was injected intradermally into the hindpaw of male Sprague-Dawley rats. Baseline measurements were taken for all tests prior to injection. A-delta and C-fiber mediated hindpaw withdrawal responses were measured as previously described (Mitchell et al., Pain 155, 733, 2014). Briefly, by stimulation of the plantar surface of the paw with a 100 ms laser pulse, producing a rapid withdrawal response. Laser pulses were delivered by an infrared diode laser (LASS-10 M; Lasmed, Mountain View, CA, USA) and calibrated to 3500 mA at 0.5 mm diameter, and delivered from 1 cm distance, C-fiber mediated responses were measured by delivery of a slow temperature ramp to the plantar surface of the hindpaw, with stimulus termination by voluntary withdrawal of the paw. The laser stimulus was adjusted to result in an approximately 10 second withdrawal latency (1000 mA, 13 cm distance).
# [10] = test system: interleukin (IL)-1, human PBMCs; experiment: PBMC cytokine secretion (ELISA): IL-1; assay type: cell-based; settings: 100 μM; with or without LPS; 24 hours
# Method: as §1
molecule,measurement,setting,value
9-hydroxy-octadecadienoic acid [reference compound],ApoA1-mediated monocyte cholesterol efflux,[1],increased
"CC/C=C\C/C=C\C/C=C\C/C=C\C/C=C\C=C\C(O)CC(C)(C)C(=O)O (centres unmarked) [2,2-dimethyl-4-hydroxy-DHA]",esterification with glycerol,[2],"resistant to esterification, including internal lactonization"
same,internal lactonization,[2],did not lactonize
"CCCCCC(O)/C=C/C1OC1CCCCCCC(C)(C)C(=O)O (stereo not drawn) [2,2-dimethyl-13-hydroxy-9,10-trans-epoxy-(11E)-octadecenoic acid]",esterification with glycerol,[2],resistant to esterification
CC/C=C\C/C=C\C/C=C\C/C=C\C/C=C\C=C\C(O)CC(C)C(=O)O (centres unmarked) [2-methyl-4-hydroxy-DHA],esterification with glycerol,[2],resistant to glycerol esterification
same,internal lactonization,[2],competitive lactonization
"CC/C=C\C/C=C\C/C=C\C/C=C\C/C=C\C=C\C(O)CCC(=O)O (centres unmarked) [4-hydroxy-DHA, reference compound]",internal lactonization,[2],rapidly undergoes internal lactonization
"CCCCCC1OC1/C=C/C(O)CCCCCCCC(=O)O (stereo not drawn) [9H-12,13E-LA, 9-hydroxy(H)-12,13-trans-epoxy-(E)-octadecenoate]",capsaicin-evoked CGRP release,[3],"Neither 9H-12,13E-LA, nor any of the tested keto-epoxy-octadecenoates, augmented"
same,low-pH-evoked CGRP release,[3],"Neither 9H-12,13E-LA, nor any of the tested keto-epoxy-octadecenoates, augmented"
"CCCCCC1OC1/C=C/C(=O)CCCCCCCC(=O)O (stereo not drawn) [9K-12,13E-LA, 9-keto(K)-12,13-trans-epoxy-(E)-octadecenoate]",itch-related scratching behavior compared to vehicle,[4],induced itch-related scratching behavior
same,onset of scratching responses (significantly greater than vehicle),[4],slower onset
same,time of maximum scratching response,[4],10 to 15 min
same,"scratching bouts compared to vehicle, pilot testing",[4],appeared to increase scratching bouts
same,scratching responses in mast cell knockout mice,[5],increased scratching responses
same,scratching responses in wild type mice,[5],increased scratching responses
"CCCCC/C=C\C(O)C1OC1CCCCCCCC(=O)O (stereo not drawn) [11H-9,10E-LA, 11-hydroxy(H)-9,10-trans-epoxy-(E)-octadecenoate]",capsaicin-evoked CGRP release,[3],significantly augmented
same,low-pH-evoked CGRP release,[3],significantly augmented
same,"number of trigeminal cells responding, concentration-response",[6],increase in the number of cells responding
"CCCCCC1OC1C(O)/C=C\CCCCCCCC(=O)O (stereo not drawn) [11H-12,13E-LA, 11-hydroxy(H)-12,13-trans-epoxy-(E)-octadecenoate]",LPS-induced TNF-alpha secretion,[7],inhibits
same,native TNF-alpha secretion,[7],inhibits
same,ApoA1-mediated monocyte cholesterol efflux,[8],inhibited
same,decrease of C-fiber withdrawal latencies,[9],28%
same,IL-1 secretion,[10],has no effect
same,ApoA1-mediated monocyte cholesterol efflux,[1],inhibited
same,capsaicin-evoked CGRP release,[3],significantly augmented
same,low-pH-evoked CGRP release,[3],significantly augmented
same,"number of trigeminal cells responding, concentration-response",[6],increase in the number of cells responding
"CCCCCC1OC1C(=O)/C=C\CCCCCCCC(=O)O (stereo not drawn) [11K-12,13E-LA, 11-keto(K)-12,13-trans-epoxy-(E)-octadecenoate]",LPS-induced TNF-alpha secretion,[7],inhibits
same,native TNF-alpha secretion,[7],inhibits
same,ApoA1-mediated monocyte cholesterol efflux,[8],inhibited
same,IL-1 secretion,[10],has no effect
same,ApoA1-mediated monocyte cholesterol efflux,[1],inhibited
"CCCCCC(O)/C=C/C1OC1CCCCCCCC(=O)O (stereo not drawn) [13H-9,10E-LA, 13-hydroxy(H)-9,10-trans-epoxy-(E)-octadecenoate]",capsaicin-evoked CGRP release,[3],had no effect
same,low-pH-evoked CGRP release,[3],significantly augmented
"CCCCCC(=O)/C=C/C1OC1CCCCCCCC(=O)O (stereo not drawn) [13K-9,10E-LA, 13-keto(K)-9,10-trans-epoxy-(E)-octadecenoate]",itch-related scratching behavior compared to vehicle,[4],no response
same,"scratching bouts compared to vehicle, pilot testing",[4],appeared to increase scratching bouts
"CCCCC/C=C\C/C=C\CCCCCCCC(=O)O [Linoleic acid, reference compound]",ApoA1-mediated monocyte cholesterol efflux,[1],increased cholesterol efflux
"CCCCC[C@H](O)/C=C/[C@H]1[C@H](O)CC(=O)[C@@H]1C/C=C\CCCC(=O)O [PGE2, prostaglandin E2, reference compound]",proportion of withdrawal responses following Aδ fiber laser stimulation,[9]; after intradermal hindpaw injection,significantly enhanced
same,decrease of C-fiber withdrawal latencies,[9],46%
same,direct stimulation of CGRP release,[3]; neutral pH,neither PGE2 nor any of the other tested compounds directly stimulated
same,capsaicin-evoked CGRP release,[3],significantly augmented
same,low-pH-evoked CGRP release,[3],significantly augmented
"NCCc1c[nH]cn1 [histamine, reference compound]",onset of scratching responses (significantly greater than vehicle),[4],≤ 5 min
same,time of maximum scratching response,[4],5 to 10 min
